Measured values taken from article PMC8566451, “Lead optimization of novel quinolone chalcone compounds by a structure–activity relationship (SAR) study to increase efficacy and metabolic stability” (Scientific Reports, 2021).
Where two headings read alike, the source gives them in different places.

Experiments:
[1] = tested on: primary human epidermal melanocytes; experiment: GI50 on primary skin cells; format: cell-based; settings: for GI50: Homo sapiens, Melanocyte, primary skin cells; for Selectivity Index (primary skin cells): primary melanocytes versus average GI50 of cancer cells
Description: The human MDA-MB-231, MCF7, MDA-MB-468, RPMI-8226 and HeLa cell lines were purchased from ATCC and maintained in Dulbecco's Modified Eagle Medium (DMEM)—high glucose supplemented with 10% fetal bovine serum (FBS) and antibiotics/antimycotics. Cell line authentication was carried out by Genetica DNA Laboratories (Burlington, NC) using a short tandem repeat (STR) profiling method (March 2015; July 2015; September 2016). Melanoma cells E-055 (MZ-Mel-3), E-097 (Mel-SOE), E-112 (UKRV-Mel-38), E-157 (UKRV-Mel-17) were obtained from the European Searchable Tumour Line Database (ESTDAB) cell bank (a kind gift of Dr. Graham Pawelec, Tubingen University, Germany). MDA-MB-435 was purchased from the Division of Cancer Treatment and Diagnosis Tumor Repository. All melanoma cells were cultured in Roswell Park Memorial Institute (RPMI) medium supplemented with 10% FBS and P/S/antimycotics. Primary human epidermal melanocytes from normal adult abdominal skin were purchased from ATCC (cat # PCS-200–013) and Cell Applications (cat#104-05a). The melanocytes were cultured in the media supplied by the companies.
The SRB assay was used to assess drug-induced cytotoxicity and cell proliferation as previously described[2],[33],[34] with a few modifications. Briefly, cells were plated 10,000 to 25,000 cells/cm^2 in 96-well plates (100 µl medium) and allowed to adhere overnight. The cell counts were different for each cell line to ensure optimal cell growth for the duration of the assay. Eight different concentrations of compound solutions using 2–4 times serial dilutions (100 µl). Cells were then incubated for an additional 48 h and then fixed with 100 µl ice-cold 10% (w/v) trichloroacetic acid (TCA) (without removing the cell medium, final concentration, 3.3% of TCA) and stained with 0.4% SRB (w/v) in 1% acetic acid (v/v). The relative growth rate (%) was calculated for each of the compound concentrations according to the following formula: 100 * (T − T0)/(C − T0), in which T is the optical density (OD) after exposure to a certain concentration of the compound after 48 h, T0 is the OD at the start of drug exposure (time zero) and C is the control growth. The GI50 for each compound was obtained from a non-linear sigmoidal dose–response (variable slope) curve fitted by GraphPad Prism v.4.03 software.

porcine tubulin = target: T1, porcine tubulin (Sus scrofa, UniProt P02550+P02554); experiment: In vitro tubulin polymerization assay; format: biochemical; settings: 20 µM porcine tubulin; for effect on tubulin polymerization: 3 µM compound, 37 °C, 60 min; for effect on tubulin polymerization at higher concentrations: 10, 15 and 20 µM compound
T1 construct: purchased Cytoskeleton Inc., Denver, CO BK011P
Description: Spontaneous polymerization of 20 µM porcine tubulin was initiated with the addition of 1 mmol/L GTP at 37 °C and monitored every minute for 60 min in the presence of the indicated concentration of CTR-21, CTR-32, nocodazole, paclitaxel, or a DMSO vehicle control. To make the graph simpler, only 3 µM concentration is shown. […] A modified Dixon plot was used to determine the inhibitory concentration of CTR-21 and CTR-32 (Ki).
Microtubule assembly was assessed using a Tubulin Polymerization assay kit (BK011P; Cytoskeleton Inc., Denver, CO). […] Polymerization was started by incubating at 37 °C and followed by absorbance readings every 1 min at 340 nm for 1 h using a Synergy H4 plate reader.

HeLa cells = experiment: Cell cycle analysis by flow cytometry; format: cell-based, human
Description: Figure 5 CTR-21 arrests cells at G2/M, eventually leading to cell death by apoptosis. (a) Effects of CTR-21 on the cell cycle progression of HeLa and E112 cells. […] (b) Cell morphology of CTR-21 arrested cells. HeLa cells were treated with 30 nM of CTR-21 for 12 h, fixed with methanol and immunostained with α-tubulin or γ-tubulin, and counterstained with DAPI. Bar = […]. (c) CTR-21 promotes PARP cleavage. […] GAPDH was used as a loading control.
Cell cycle progression was determined using flow cytometry. UKRV-Mel-38 and HeLa cells were plated onto 10 cm plate at a density of 0.5 million and treated them with or without the compounds the following day for 12, 24 or 48 h. Cells were then harvested and centrifuged at 1000 rpm for 5 min, washed in PBS and then fixed with ice-cold ethanol (70%) for at least 24 h at − 20 °C. The cells were centrifuged, re-suspended in PBS solution, followed by centrifugation. The cell pellet was then stained with 100 μg/mL propidium iodide (PI) and 100 μg/mL RNase A in distilled water for at least 1 h. DNA content was measured using a Beckmann Coulter Cytomics FC500 (Beckman Coulter, Fullerton, CA), and the proportion of cell populations in G0/G1, S, and G2/M phases of cell cycle was calculated on the basis of DNA distribution histograms using CXP software (Beckman Coulter, Fullerton, CA).

[2] = tested on: NCI-60 panel of cancer cell lines; experiment: NCI-60 panel, SRB colorimetric assay; format: cell-based; settings: 10 μM single dose and five dose data (Supplemental Figs. S1–S8)
Description: Supplementa ry Figure l egend
Supplementary Figures S 1- S4.CTR -21 effectivel y prev ent proliferation o f a rep resent ative set […]
of cancer cell lines (NC I-60 panel). Fi gu re S 1: 10 μM of CTR -21 was used against the panel of […]
NC I-60 cancer cell lines including: six leukemia cell lines, nine non-small cell lung cancer cell […]
lines, seven colorectal cancer cell lines, six CNS cancer cell lines, nine mel anoma cell lines, seven ovari an can cer cell lines, seven ren al can cer cell lines, two prostate cancer cell lines and six breast cancer cell lines, utilizing the sulforhodamine B (SRB) colorimetric assa y. Fi gu re S 2- […]
S4: Five dose data for CTR-21.
Supplementary Figures S 5- S8.CTR -32effectivel y prev ent s prolifer ation of a rep resent ative set […]
of cancer cell lines (NC I-60 panel). Fi gu re S 5: 10 μM of CTR -32 was used against the panel of […]
six breast cancer cell lines, utilizing the sulforhodamine B (SRB) colorimetric assa y. Fi gu re S 6- […]
S8: Five dose data for CTR-32.
Supplementa ry Figure S9.CTR -21 and CTR-32 inhibit microtubule pol ymerization in vitro .
Spontaneous pol ymerizat ion of 20µM porcine tubulin was initiated with the addition of 1 […]
mmol/L GTP at 37°C and monitored ever y minut e for 60 minutes in the presence of the […]
indicated concentration of CTR-21, CTR-32, nocodazole, paclitaxel, or a DMSO vehicle […]

[3] = Melanocytes #1, read-out: GI50 Melanocytes #1
[4] = Melanocytes #2, read-out: GI50 Melanocytes #2

T1 sequence (P02554 whole entry): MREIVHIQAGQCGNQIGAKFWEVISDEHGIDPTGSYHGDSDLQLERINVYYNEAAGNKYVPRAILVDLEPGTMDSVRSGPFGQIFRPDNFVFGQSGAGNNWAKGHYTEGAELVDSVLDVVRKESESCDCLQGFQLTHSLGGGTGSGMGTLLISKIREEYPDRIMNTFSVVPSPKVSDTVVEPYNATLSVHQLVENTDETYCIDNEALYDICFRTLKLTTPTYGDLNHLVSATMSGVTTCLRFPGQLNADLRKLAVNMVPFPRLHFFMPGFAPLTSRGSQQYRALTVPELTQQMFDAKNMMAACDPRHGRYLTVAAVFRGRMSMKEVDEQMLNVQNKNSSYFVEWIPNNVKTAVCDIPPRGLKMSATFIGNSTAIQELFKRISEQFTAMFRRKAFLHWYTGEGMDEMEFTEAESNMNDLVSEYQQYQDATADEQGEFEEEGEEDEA
T1 sequence (P02550 whole entry): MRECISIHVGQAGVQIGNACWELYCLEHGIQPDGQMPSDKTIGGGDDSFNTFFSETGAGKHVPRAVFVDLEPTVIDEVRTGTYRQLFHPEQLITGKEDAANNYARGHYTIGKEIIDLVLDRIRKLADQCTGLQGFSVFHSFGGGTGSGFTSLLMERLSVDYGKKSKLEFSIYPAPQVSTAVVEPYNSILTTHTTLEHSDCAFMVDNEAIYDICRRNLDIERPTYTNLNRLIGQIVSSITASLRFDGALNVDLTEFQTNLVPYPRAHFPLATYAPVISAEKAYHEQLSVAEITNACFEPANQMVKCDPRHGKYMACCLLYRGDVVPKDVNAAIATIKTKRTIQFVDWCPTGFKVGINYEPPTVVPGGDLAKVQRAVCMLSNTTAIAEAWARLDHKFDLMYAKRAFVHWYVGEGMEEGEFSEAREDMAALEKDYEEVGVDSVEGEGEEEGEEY

| Compound | GI50 [1, 3] [nM] | GI50 [1, 4] [nM] | Selectivity Index (primary skin cells) [1] | effect on tubulin polymerization (porcine tubulin) | effect on tubulin polymerization at higher concentrations (porcine tubulin) | cell cycle effect (HeLa cells; 3× GI50, 12 or 24 h, HeLa and UKRV-Mel-38 (Supplemental Fig. S11)) | activity against NCI-60 panel [2] | cell cycle effect (HeLa cells; HeLa, 30 nM, by 12 h, maintained after 24 h) |
| --- | --- | --- | --- | --- | --- | --- | --- | --- |
| CCOc1ccccc1C(=O)/C=C/c1cc2ccccc2[nH]c1=O [CTR-32, (E)-3-(3-(2-ethoxyphenyl)-3-oxoprop-1-enyl)quinolin-2(1H)-one] | 2630 ± 782 | 3630 ± 1080 | 158 | does not affect the steady state dynamics or Vmax of tubulin polymerization | almost completely inhibited the formation of microtubule polymers | arrests the cells in G2/M | highly effective |  |
| COc1ccccc1C(=O)/C=C/c1cc2cccc(OC)c2[nH]c1=O [CTR-21, (E)-8-methoxy-3-(3-(2-methoxyphenyl)-3-oxoprop-1-enyl) quinolin-2(1H)-one] | 2090 ± 804 | 3050 ± 960 | 157 | reduced steady-state | did not appreciably increase the inhibition of tubulin dynamics |  | highly effective | arrest in G2/M |
